# Data reported in patent publication US7763602B2, “Pyrrole derivatives as antimycobacterial compounds” (priority 2002, dated 2010).
# Experiments:
# Format in all cases: cell-based, Mycobacterium tuberculosis
# [1] = system: M. tuberculosis clinical isolates, sensitive; assay: microbe, parasite or virus in culture; conditions: for MIC (μg/ml) against Clinical isolates Sensitive: Table I, agar dilution; for MIC: Mycobacterium tuberculosis, read-out: MIC (μg/ml) against Clinical isolates Sensitive
# M. tuberculosis 27294 = assay: In vitro agar dilution assay (MIC), reference strain; conditions: for MIC (μg/ml) against M. tuberculosis-27294: Table I; for MIC: Mycobacterium tuberculosis, 27294, Table I, read-out: MIC (μg/ml) against M. tuberculosis-27294
# [2] = system: M. tuberculosis H37Rv ATCC 27294; assay: In vitro growth inhibition assay, BACTEC 460 TB system; design: key: +: If ΔGI of test vial is less than that of the control vial the culture was sensitive to the test compound; conditions: final concentration 6.25 μg/ml
SMILES,MIC (μg/ml) against Clinical isolates Sensitive [1] [µg/mL],MIC (μg/ml) against M. tuberculosis-27294 (M. tuberculosis 27294) [µg/mL],Growth inhibition of M. tuberculosis 27294 [2],MIC [1] [µg/mL],MIC (M. tuberculosis 27294) [µg/mL]
"Cc1c(CN2CCN(c3ccccn3)CC2)cc(-c2ccccc2)n1NC(=O)c1cnccn1 [compound 28, N-(3-{[4-(2-pyridyl)piperazinyl]methyl}-2-methyl-5-phenylpyrrolyl)pyrazin-2-ylcarboxamide]",1.0 to 4.0,2.0,,,
"COc1ccccc1N1CCN(Cc2cc(C)n(NC(=O)c3cnccn3)c2-c2ccc(Cl)cc2)CC1 [compound 42, N-(2-(4-chlorophenyl)-3-{[4-(2-methoxyphenyl)piperazinyl]methyl}-5-methylpyrrolyl)pyrazin-2-ylcarboxamide]",8.0,8.0,+,,
"CCC(CO)n1c(C)c(CN2CCSCC2)c(CO)c1-c1ccccc1 (stereo not drawn) [compound 90, 2-[3-(hydroxymethyl)-5-methyl-2-phenyl-4-(1,4-thiazaperhydroin-4-ylmethyl)-pyrrolyl]butan-1-ol]",>16.0,>16.0,,,
"Cc1c(CN2CCN(Cc3ccc4c(c3)OCO4)CC2)cc(-c2ccc(Cl)cc2)n1-c1ccc(Cl)cc1 [Compound No. 8, 5-[(4-{[1,5-bis(4-chlorophenyl)-2-methylpyrrol-3-yl]methyl}piperazinyl)methyl]-2H-benzo[d]1,3-dioxolane]",0.5 to 1.0,1.0,+,,
"Cc1c(CN2CCN(c3ccc(F)cc3)CC2)cc(-c2ccc(Cl)cc2)n1-c1ccc(Cl)cc1 [Compound No. 1, 1-{[1,5-bis(4-chlorophenyl)-2-methylpyrrol-3-yl]methyl}-4-(4-fluorophenyl) piperazine]",,,+,0.5 to 2,0.5
"Cc1c(CN2CCN(Cc3ccc4c(c3)OCO4)CC2)cc(-c2ccc(Cl)cc2)n1-c1cccc2ccccc12 [compound 62, 5-[(4-{[5-(4-chlorophenyl)-2-methyl-1-naphthylpyrrol-3-yl]methyl}-piperazinyl)methyl]-2H-benzo[d]1,3-dioxolane]",>16.0,>16.0,+,,
"COc1ccccc1N1CCN(Cc2cc(-c3ccc(Cl)cc3)n(-c3ccc(F)cc3F)c2C)CC1 [compound 45, 1-{[1-(2,4-difluorophenyl)-5-(4-chlorophenyl)-2-methylpyrrol-3-yl]methyl}-4-(2-methoxyphenyl)piperazine]",,,+,0.5 to 2,0.5
"Cc1cc(CN2CCN(c3cccc(C(F)(F)F)c3)CC2)c(-c2ccc(Cl)cc2)n1NC(=O)c1cnccn1 [compound 43, N-(2-(4-chlorophenyl)-3-{[4-(3-trifluoromethylphenyl)piperazinyl]methyl}-5-methylpyrrolyl)pyrazin-2-ylcarboxamide]",>16.0,>16.0,,,
"Cc1c(CN2CCN(c3ccc(F)cc3)CC2)cc(-c2ccccc2)n1-c1ccc(F)cc1F [compound 51, 1-{[1-(2,4-difluorophenyl)-2-methyl-5-phenylpyrrol-3-yl]methyl}-4-(4-fluorophenyl)piperazine]",,,,> 16,> 16
"COc1ccccc1N1CCN(Cc2cc(C)n(NC(=O)c3cnccn3)c2-c2ccccc2)CC1 [compound 32, N-(3-{[4-(2-methoxyphenyl)piperazinyl]methyl}-5-methyl-2-phenylpyrrolyl) pyrazin-2-ylcarboxamide]",>16.0,>16.0,,,
"Cc1cc(CN2CCN(Cc3ccc4c(c3)OCO4)CC2)c(-c2ccccc2)n1NC(=O)c1ccncc1 [compound 24, N-(3-{[4-(2H-benzo[d]1,3-dioxolan-5-ylmethyl)piperazinyl]methyl}-5-methyl-2-phenylpyrrolyl)-4-pyridylcarboxamide]",,8.0,+,,
"COc1ccccc1N1CCN(Cc2cc(-c3ccc(Cl)cc3)n(NC(=O)c3cnccn3)c2C)CC1 [compound 38, N-(5-(4-chlorophenyl)-3-{[4-(2-methoxyphenyl)piperazinyl]methyl}-2-methylpyrrolyl)pyrazin-2-ylcarboxamide]",>16.0,>16.0,,,
"Cc1c(CN2CCN(c3ccc(F)cc3)CC2)cc(-c2ccc(Cl)cc2)n1NC(=O)c1cnccn1 [compound 37, N-(5-(4-chlorophenyl)-3-{[4-(4-fluorophenyl)piperazinyl]methyl}-2-methylpyrrolyl)pyrazin-2-ylcarboxamide]",8 to 16.0,16.0,,,
"Cc1c(CN2CCCC2)cc(-c2ccccc2)n1NC(=O)c1ccncc1 [compound 19, N-[2-methyl-5-phenyl-3-(pyrrolidinylmethyl)pyrrolyl]-4-pyridylcarboxamide]",,16.0,,,
"Cc1cc(CN2CCN(c3cccc(C(F)(F)F)c3)CC2)c(-c2ccc(Cl)cc2)n1-c1cccc2ccccc12 [compound 64, 1-{[2-(4-chlorophenyl)-5-methyl-1-naphthylpyrrol-3-yl]methyl}-4-(3-trifluoromethylphenyl)piperazine]",>16.0,>16.0,,,
"Cc1cc(CN2CCN(c3ccc(F)cc3)CC2)c(-c2ccc(Cl)cc2)n1NC(=O)c1cnccn1 [compound 41, N-(2-(4-chlorophenyl)-3-{[4-(4-fluorophenyl)piperazinyl]methyl}-5-methylpyrrolyl)pyrazin-2-ylcarboxamide]",>16.0,>16.0,,,
"COc1ccccc1N1CCN(Cc2cc(-c3ccc(Cl)cc3)n(-c3cccc4ccccc34)c2C)CC1 [compound 59, 1-{[5-(4-chlorophenyl)-2-methyl-1-naphthylpyrrol-3-yl]methyl}-4-(2-methoxyphenyl)piperazine]",>16.0,>16.0,,,
"Cc1cc(CN2CCN(c3ccc(F)cc3)CC2)c(-c2ccccc2)n1-c1ccc(F)cc1F [compound 55, 1-{[1-(2,4-difluorophenyl)-5-methyl-2-phenylpyrrol-3-yl]methyl}-4-(4-fluorophenyl) piperazine]",,,,> 16,> 16
"Cc1c(CN2CCN(c3cccc(C(F)(F)F)c3)CC2)cc(-c2ccccc2)n1-c1ccc(F)cc1F [compound 53, 1-{[1-(2,4-difluorophenyl)-2-methyl-5-phenylpyrrol-3-yl]methyl}-4-(3-trifluoromethylphenyl)piperazine]",,,,> 16,> 16
